Measurements from patent publication US8012959B2, “Diaminopyrimidinecarboxamide derivative” (Astellas Pharma Inc., priority 2002, dated 2011).

Key:
T cells = experiment: Th2 differentiation (IL-4 production by differentiated mouse spleen T cells, ELISA); format: cell-based; conditions: inhibition of Th2 differentiation (IL-4 production, ELISA), C57BL/6 mouse spleen T cells
Procedure: Measurement of Th2 Differentiation
T cells were prepared by removing nylon wool (Wako Pure Chemical Industries)-adhering cells from C57BL/6 mouse (Charles River Japan) spleen cells. Using a 96 well plate to which an anti-CD3ε antibody (10 μg/ml) (Sederlane) had been immobilized in advance, T cells (2×10^5 cells/0.2 ml) were inoculated under stimulation with anti-CD28 antibody (1 μg/ml) (Pharmingen), IL-2 (10 ng/ml) (Peprotech) and IL-4 (10 ng/ml) (Peprotech). After 2 days of the culturing, total volume of the cell suspension was diluted to 2 ml with a medium containing IL-2 (10 ng/ml) and IL-4 (10 ng/ml). The differentiation was induced by further carrying out the culturing for 3 days. By counting the cell density, the cells after differentiation were adjusted to 1×10^6 cells/ml and inoculated into a 96 well plate immobilized with the anti-CD3 ε antibody, in order to induce IL-4 production. The supernatant after 24 hours of the stimulation was recovered, and the IL-4 production was determined by an ELISA method. The antibody used in the ELISA was purchased from Pharmingen. Also, an HRPO-labeled streptoavidin (Amersham Pharmacia) was used in the detection of biotinylated antibody, and a peroxidase color developing reagent (Sumitomo Bakelite) was used in the HRPO color development. In the case of the evaluation of compounds, compound dilutions were added to the wells before the addition of T cells, at the time of the dilution 2 days later, compounds equivalent to the initial concentration were added. Also, regarding the dilution of compounds, dilution was carried out using 10% FBS-containing RPMI 1640 such that the final concentration of DMSO in which each compound was dissolved became 0.1% or less. Inhibitory activity of each tested compound was evaluated in which the IL-4 production when DMSO was added instead of the compound was regarded as 100%, and the IL-4 production when anti-CD28 antibody and IL-4 were not added as 0%.

STAT 6 = target: T1, STAT 6 (Mus musculus, UniProt P52633); experiment: STAT 6-dependent reporter activity (IL-4-stimulated CI/FW4 luciferase reporter cell); format: cell-based, human
T1 construct: An STAT 6 reporter cell CI/FW4 was constructed by the above operation; endogenous in cells; host or cells: CI/FW4 (FW4 cell stably carrying the pGL2-CI/bs luciferase reporter)
T1 sequence (P52633 1-837): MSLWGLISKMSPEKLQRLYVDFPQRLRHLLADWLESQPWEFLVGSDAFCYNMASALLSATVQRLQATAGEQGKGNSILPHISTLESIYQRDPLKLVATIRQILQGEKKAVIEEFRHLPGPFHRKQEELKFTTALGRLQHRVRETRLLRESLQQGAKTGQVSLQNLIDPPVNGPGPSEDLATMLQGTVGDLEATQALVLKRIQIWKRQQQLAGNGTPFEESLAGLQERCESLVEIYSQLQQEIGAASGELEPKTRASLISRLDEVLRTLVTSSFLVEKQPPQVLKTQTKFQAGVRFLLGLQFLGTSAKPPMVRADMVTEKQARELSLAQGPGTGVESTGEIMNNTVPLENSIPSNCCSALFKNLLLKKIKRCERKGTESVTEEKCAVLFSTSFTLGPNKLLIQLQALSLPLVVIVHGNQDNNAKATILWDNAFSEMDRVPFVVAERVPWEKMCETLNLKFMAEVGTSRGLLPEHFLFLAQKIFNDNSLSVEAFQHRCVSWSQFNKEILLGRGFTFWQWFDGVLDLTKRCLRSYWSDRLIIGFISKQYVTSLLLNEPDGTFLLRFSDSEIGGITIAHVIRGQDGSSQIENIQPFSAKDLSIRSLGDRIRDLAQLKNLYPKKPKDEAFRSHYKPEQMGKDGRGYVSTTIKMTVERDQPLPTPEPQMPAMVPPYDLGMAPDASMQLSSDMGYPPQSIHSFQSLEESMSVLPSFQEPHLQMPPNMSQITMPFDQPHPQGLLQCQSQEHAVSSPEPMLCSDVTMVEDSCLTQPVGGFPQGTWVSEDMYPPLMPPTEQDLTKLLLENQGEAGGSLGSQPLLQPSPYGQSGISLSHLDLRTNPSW
Procedure: Measurement of STAT 6-Dependent Reporter Activity 1) Construction of STAT 6 Reactive Reporter Plasmid A STAT 6 reporter plasmid pGL2-CI was prepared by the following method. […] Also, […] sequence DNA molecules (SEQ ID NOs:3 and 4) contained in the adenovirus major late promoter were annealed and inserted into BglII and HindIII sites of the same vector. Thereafter, pGL2-CI/bs was constructed by inserting the blasticidin resistance gene of pUCSV-BD (Funakoshi) into BamHI site of the constructed pGL2-CI. 2) Construction of STAT 6 Reporter Cell Gene transfer of […] into a human IL-4 reactive cell FW4 cell (Mol. Cell. Biol., 14: 5433-5440) was carried out by the electroporation method (320 V, 960 μF/0.4 cm cuvette (Nippon Bio-Rad Laboratories)), and 6 μg/ml of blasticidin (Funakoshi) was added 40 hours thereafter to select a resistant cell. Confirmation of constant transfer of the reporter plasmid was carried out by detecting luciferase induce by IL-4 stimulation. An STAT 6 reporter cell CI/FW4 was constructed by the above operation. 3) STAT Reporter Assay Using CI/FW4 Cell Stimulation of the CI/FW4 cell (1×10^4 cells/0.1 ml) with 10 ng/ml of human IL-4 (Genzyme Techne) was carried out using a white 96 well plate (Nunc). In the case of the evaluation of compounds, compound dilutions were added to the wells before inoculating the cells into the 96 well plate. […] Thereafter, 50 μl of a luciferase substrate solution (10 mM Tris-HCl pH 7.8, 5 mM luciferin, 2 mM coenzyme A, 2 mM ATP, 0.5 mM MgCl2 and 2 mM Mg(OH)2) was added, followed by stirring for 1 minute. Then, the luciferase activity was measured using ML3000 luminometer (Dynatech Laboratories, Inc). Inhibitory activities of tested compounds were evaluated in which the luminescence intensity (relative light unit: […] The results are shown in the following Table 26.

SMILES | Inh (%) (T cells) | inhibition at 0.1 µM (STAT 6; inhibition ratio at 0.1 μM compound, IL-4-stimulated CI/FW4 cell, luciferase) [%] | inhibition at 1 µM (STAT 6; inhibition ratio at 1 μM compound, IL-4-stimulated CI/FW4 cell, luciferase) [%] | inhibition of STAT 6-dependent reporter activity (activity similar to the compounds of Table 26) (STAT 6; CI/FW4 cell, 10 ng/ml human IL-4, luciferase)
Cc1cccc(Nc2nc(N[C@@H]3CCCC[C@@H]3N)ncc2C(N)=O)c1 (relative stereo) [ref 2, 2-(cis-2-aminocyclohexylamino)-4-(3-methylanilino)pyrimidine-5-carboxamide, reference compound] | 0 | – | – | –
NC(=O)c1cnc(NCCc2ccc(O)c(Cl)c2)nc1NCc1ccccc1 [Example 1, 4-benzylamino-2-{[2-(3-chloro-4-hydroxyphenyl)ethyl]amino}pyrimidine-5-carboxamide] | 88 | 89 | 100 | –
NC(=O)c1cnc(NCCc2cc(Cl)c(O)c(Cl)c2)nc1NCc1ccccc1 [Example 16] | 82 | – | – | good activity
Cc1cccc(Nc2nc(NCCN)ncc2C(N)=O)c1 [ref 1, 2-(2-aminoethylamino)-4-(3-methylanilino)pyrimidine-5-carboxamide, reference compound] | 0 | – | – | –
